From article PMC9959244, “Revisiting the Solubility–Permeability Relationship with Hydrophobic Drug Umifenovir in Pluronic Solutions: Impact of pH and Co-Solvent” (Pharmaceutics, 2023)

Assay: Quantitative parameters of UMF solubilization by F-127 micelles (from phase solubility plots)
Format: physicochemical
Excerpt: To elucidate the solubilizing potential of the micelles of F-127 towards UMF, we determined the solubilizing capacity (χ) equal the amount of UMF solubilized by one mole of F-127 using the equation given in Stephenson et al.:(2) χ=(S2−S20)/(Cpolym−cmc)=(SUMF−SUMF0)/(CF−127−cmc) where S2 and S20 are the total compound solubility at a specific polymer concentration in the solution and the intrinsic solubility, respectively, Cpolym is the polymer (F-127) concentration, cmc is the polymer critical micelle concentration, expressed in mol∙L^−1, and (Cpolym—cmc) is the concentration of the micelles. […] Solubilizing capacities were determined from the slopes of the dependences illustrated in Figure S2. […]
Micelle formation occurs above the critical micelle concentration and is accompanied by the removal of the hydrophobic tails of F-127 molecules from the aqueous surroundings, the association of monomers and the decrease of the free energy of the entire system. […] In order to quantify the apparent free energy of solubilization (transferring of the compound from the aqueous to the micellar phase) at 310.15 K, the following equation was applied:(4) ΔGS310.15K=−RT⋅lnKm/w where ΔGS310.15K is the apparent solubilization free energy, R is the universal gas constant, and Km/w is the micelle/water partition coefficient of UMF. […]

CCOC(=O)c1c(CSc2ccccc2)n(C)c2cc(Br)c(O)c(CN(C)C)c12 [UMF, 6-bromo-4-dimethylaminomethyl-5-hydroxy-1-methyl-2-phenylthiomethyl indole-3-carboxylic acid ethyl ester]
Higher solubilizing potential of F-127 (Km/w) towards UMF base at pH 7.4 vs UMF∙HCl∙H2O at pH 2.0: approximately 5.4 fold
logKm/w (UMF-buffer pH 7.4-pluronic F-127 system): 3.88
